Where two headings read alike, the source gives them in different places.
Columns and labels:
[1] = tested on: E. coli strain ATCC 700928; experiment: Mouse UTI model, CK570 IU or IV: bacterial burden in kidneys, bladder, urine; assay type: in vivo, C3H/OuJ mice; details: each tissue, all timepoints
From the text: The vehicle used in this study was 1×TBS. […] C3H/OuJ female mice, aged approximately 8 weeks and weighing 21 to 24 grams, were used in this study. Mice were housed with 1 to 5 animals per cage and were provided food (5P76 Prolab isopro irradiated lab diet) and water ad libitum. […] Each mouse was then placed on a board, ventral side up, with the nose inserted into a nose cone supplying isoflurane. The lower abdomen was gently massaged to expel any urine in the bladder. […] For IV administration, mice were manually restrained in a restrainer device, and study treatment was administered via the lateral tail vein. […] For IU administration, the same method was used as for the original administration of E. coli. A dose volume of 50 μL was used for IU administration. […] All CFU data were log-transformed.

[2] = tested on: E. coli (ATCC 700928); experiment: Mouse UTI model, CK618 with TMP/SMX vs single agents and Phase 1b LBP-EC01 (Study 21-LOC-035); assay type: in vivo, C3H/OuJ mice; details: BID IV at 48, 54, 72, 78, 96 hours p.i.
Method: For the LBP-EC01 from the Phase 1b study treatment, animals received the Phase 1 Clinical Trial Material. Bactrim was formulated at a concentration of 6.3 mg/mL.

[3] = tested on: 304 E. coli clinical isolates; assay type: cell-based, Escherichia coli; details: 304-isolate panel
Method: (§1) Phage cocktail CK618 was tested in combination with and alongside antibiotics against two isolate panels. The first assay used a panel of 88 contemporaneous urinary tract infection (UTI) isolates from North America, Europe, Latin America, and Asia. […] The second assay used a panel made up of a 300-strain clinical isolate panel (Table 14) with an additional 4 strains of interest. […] Four of the same SOC antibiotics tested against the 88-isolate panel were tested against this panel. The non-SOC antibiotics were not included due to their limited use in clinical settings, and nitrofurantoin was not included due to the low probability of resistance to this drug.
(§2) For both isolate panels, antibiotic concentrations tested were determined by using Clinical and Laboratory Standards Institute (CLSI) or European Committee on Antimicrobial Susceptibility Testing (EUCAST) breakpoints at concentrations that kill susceptible isolates but allow intermediate or resistant isolates to grow in the standard AST microdilution assay (Table 17).
(§3) The composition of the proposed Phase 2 CRISPR-enhanced bacteriophage (CRISPR-phage, hereafter termed ‘crPhage’) cocktail (CK618) has been updated from the CK570 to include six bacteriophages as compared to three bacteriophages in CK570. Bacteriophage cocktail CK618, was prepared such that all bacteriophages had equivalent titers in the final cocktail. The cocktail was then mixed with bacteria to obtain final titers of 1×10^6 plaque-forming unit (PFU)/mL/phage for the cocktail and 1×10^5 colony-forming unit (CFU)/mL for the bacteria, resulting in a multiplicity of infection (MOI) of 10 for each bacteriophage in a sample. Briefly, 5 μl of each sample (CK618 alone, CK618 and antibiotics, antibiotics alone, or medium alone) was added to 5 μl of optical density (OD)-normalized bacterial isolate and 40 μl LB medium. Reactions were incubated at 37° C. with shaking and OD measurements were taken each hour for 20 hours.
(§4) Host range percentage is the percent of isolates that responded to treatment of antibiotics or CK618. In the case of the 88-isolate panel, results were analyzed on the complete panel as well as the subset of classified as multidrug-resistant (MDR) (n=21) and beta-lactam-resistant (n=31).
(§5) The first assay used a panel of 88 contemporaneous isolates. Twenty-one of those strains are classified as MDR, with resistance to 3 or more antibiotic classes. […] The second assay used the panel made up of a 300-strain clinical isolate panel with an additional 4 strains of interest.
(§6) Antibiotic concentrations tested were determined by using CLSI or EUCAST breakpoints at concentrations that kill susceptible strains but allow intermediate or resistant strains to grow in the standard AST microdilution assay (Table 27). LBP-EC01 v.2 was combined with bacteria resulting in a MO of 10 for each bacteriophage in a sample. In the case of the 88-isolate panel, results were analyzed on the complete panel as well as the subset of isolates classified as multidrug-resistant (MDR) (n=21) and beta-lactam-resistant (n=31).

[4] = tested on: 88 urinary tract infection E. coli isolates; assay type: cell-based, Escherichia coli
Method: as §1, §2, §3, §4, §5, §6

[5] = tested on: E. coli strains b3411 and b3370; experiment: In vitro CFU reduction by purified colicins; assay type: cell-based, Escherichia coli; details: ~30 min, then regrowth
Method: Colicins produced an immediate significant reduction of CFU/mL (˜30 min) after adding colicins before bacterial regrowth.

[6] = tested on: E. coli strain b3370; experiment: Neutropenic thigh model, Colicin 10 and Colicin U (Study 23-END-056); assay type: in vivo, ICR mouse; details: 4 h and 7 h; 295 nM Colicin 10, 29.5 nM Colicin U
Method: Study 23-END-056 was performed to evaluate the statistical difference between Control and Colicin treatment and sustained reduction of bacteria burden to LOD with colicin treatment in an ICR mouse model (FIG. 51). Specifically, the efficacy of 29.5 nM Colicin U, and combination therapy of both of 295 nM Colicin 10 & 29.5 nM Colicin U were evaluated in an ICR mouse model compared with no treatment (Table 40 and FIG. 52). In these experiments, due to high endotoxin, Colicin U was diluted 1:10 more than Colicin 10. At the 4 h and 7 h time points, treatment with 295 nM Colicin 10 lowered CFU, whereas no change was seen after treatment with 29.5 Colicin U.

Molecule: O=C(O)c1cn(C2CC2)c2cc(N3CCNCC3)c(F)cc2c1=O [Ciprofloxacin]
- bacterial burden, positive control [1]: significantly reduced bacterial burden to the LOD in each tissue

Molecule: Trimethoprim/Sulfamethoxazole [TMP/SXT]
- bacterial burden in bladder relative to vehicle and LBP-EC01 from the Phase 1b study, monotherapy [2]: significant decrease in bacterial burden
- Host range % on MDR subset (n = 93), Combination: Antibiotic + LBP-CK618 [3]: 75.3%
- Host range % on MDR subset (n = 93), Single agent treatment [3]: 17.2%
- Host range % on beta-lactam-resistant subset (n = 91), Combination: Antibiotic + LBP-CK618 [3]: 78.0%
- Host range % on beta-lactam-resistant subset (n = 91), Single agent treatment [3]: 29.7%
- Host Range % on MDR Subset (n = 93), Combination Antibiotic + LBP-EC01 v.2 ([3]; MDR subset, antibiotic combined with LBP-EC01 v.2): 75.3%
- Host range % on MDR subset (n = 93), Single agent treatment ([3]; MDR subset, single agent): 17.2%
- Host Range % on all Strains (n = 304), Combination: Antibiotic + LBP-EC01 v.2 ([3]; all strains, antibiotic combined with LBP-EC01 v.2): 81.9%
- Host Range % on all Strains (n = 304), Single agent treatment ([3]; all strains, single agent): 46.4%
- Host Range % on Beta-lactam-Resistant Subset (n = 91), Combination: Antibiotic + LBP-EC01 v.2 ([3]; beta-lactam-resistant subset, antibiotic combined with LBP-EC01 v.2): 78.0%
- Host range % on beta-lactam-resistant subset (n = 91), Single agent treatment ([3]; beta-lactam-resistant subset, single agent): 29.7%
- Host Range % on Beta-lactam-Resistant Subset (n = 31), Combination: Antibiotic + CK618 v.2 ([4]; 88-isolate panel): 83.9%
- Host Range % on Beta-lactam-Resistant Subset (n = 31), Single agent treatment ([4]; 88-isolate panel): 25.8%
- Host Range % on MDR Subset (n = 21), Combination: Antibiotic + CK618 v.2 ([4]; 88-isolate panel): 82.5%
- Host Range % on MDR Subset (n = 21), Single agent treatment ([4]; 88-isolate panel): 19.0%
- Host Range % on all Strains (n = 88), Single agent treatment ([4]; antibiotic at breakpoint concentration (Table 17), cocktail 1 × 10^6 PFU/ml per bacteriophage, MOI 10): 42.8%
- Host Range % on all Strains (n = 88), Combination: Antibiotic + CK618 v.2 ([4]; antibiotic at breakpoint concentration plus cocktail 1 × 10^6 PFU/ml per bacteriophage): 85.6%

B1: Colicin U (protein)
chain: MPGFNYGGHGDGTGWSSERGDGPAPGGGMQGNGGGHSGNNDSGSNSVSQQISAIQNDQKLKQKVVNMLIAARKMNPDAKMILGSIAPSGVMQVTIEGVTSTQARQLGLGGLVMGYNASGVIGAVGEIDTGHRLNASGASTPGSETSVDSFVNGQKPAEEWHAVAKDSWTGAGPVNTGLVNNAIKSVRIIKKGYVTGVLTPEEVMNKAEYKAMRQAFDSLPLAKQGEAVRQIVAAWSLAYQDFPVNLKKEMGRVTERIVDAINLALILNQTESRLSESQKNVDVANQIISDTVKAINDVNKKIAEKRNQQVSLTDLMNKKQKEVEDLKKIFKNHSYHRIRDAQREYDDARNKYALLASDINALQAQVSGLTARKQQAEQNKAAAEKAKADAAAKAAAEKAAAEAKAKAEAEKARKEAEEKANDEKAVLTKASEIIISVGDKAGEYLGDKYKVLSREIADNIKNFQGKTIRSYDEAMASVNKLMANPDLKINAADRDAIVNAWKAFDAEDMGNKFAALGKTFKAADYVMKANNVREKSIEGYQTGNWGPLMLEIESWVLSGIASAVALSFFSAIFGTFAMLGVFSTSLAGILAVILAGLVGALIDDNFVDKLNNEIIRPAY
modifications: Colicin U
- CFU reduction after adding colicins [5]: CFU reduction was observed
- CFU in mouse thigh compared with no treatment [6]: no change

B2: Colicin 10 (protein)
chain: MDKVTDNSPDVESTESTEGSFPTVGVDTGDTITATLATGTENVGGGGGAFGGASESSAAIHATAKWSTAQLKKHQAEQAARAAAAEAALAKAKSQRDALTQRLKDIVNDALRANAARSPSVTDLAHANNMAMQAEAERLRLAKAEQKAREEAEAAEKALREAERQRDEIARQQAETAHLLAMAEAAEAEKNRQDSLDEEHRAVEVAEKKLAEAKAELAKAESDVQSKQAIVSRVAGELENAQKSVDVKVTGFPGWRDVQKKLERQLQDKKNEYSSVTNALNSAVSIRDAKKTEVQNAEIKLKEAKDALEKSQVKDSVDTMVGFYQYITEQYGEKYSRIAQDLAEKAKGSKFNSVDEALAAFEKYKNVLDKKFSKVDRDDIFNALESITYDEWAKHLEKISRALKVTGYLSFGYDVWDGTLKGLKTGDWKPLFVTLEKSAVDFGVAKIVALMFSFIVGAPLGFWGIAIITGIVSSYIGDDELNKLNELLGI
modifications: Colicin 10
- CFU reduction after adding colicins [5]: CFU reduction was observed
- CFU in mouse thigh compared with no treatment [6]: lowered CFU

— US20250345378A1 (priority 2022, published 2025)
